Experimental data reported in EPA's ToxValDB 9.5.

Tested on: Rattus norvegicus
Settings: short-term, duration: 28 days, oral, gavage, Sprague-Dawley

O=C(O)C(F)(F)C(F)(F)C(F)(F)C(F)(F)C(F)(F)C(F)(F)C(F)(F)F [Perfluorooctanoic acid]
0.625 mg/kg-day: LOEL (M, Clinical chemistry_Alanine aminotransferase) | LOEL (M, Clinical chemistry_Albumin/globulin ratio) | LOEL (M, Clinical chemistry_Alkaline phosphatase) | LOEL (M, Clinical chemistry_Cholesterol)
12.5 mg/kg-day: LOEL (F, Clinical chemistry_Albumin/globulin ratio) | LOEL (F, Clinical chemistry_Globulin) | LOEL (F, Gene expression_Acox1) | LOEL (F, Hematology_Erythrocytes) | LOEL (F, Hematology_Hematocrit) | LOEL (F, Hematology_Hemoglobin) | LOEL (F, Nonneoplastic effects_Nose - Respiratory epithelium, hyperplasia) | LOEL (F, Nonneoplastic effects_Nose - Respiratory epithelium, inflammation, chronic active)
2.5 mg/kg-day: LOEL (M, Clinical chemistry_Aspartate aminotransferase)
25 mg/kg-day: LOEL (F, Clinical chemistry_Albumin) | LOEL (F, Gene expression_Cyp4a1) | LOEL (F, Nonneoplastic effects_Liver - Hepatocyte, cytoplasmic alteration) | LOEL (F, Organ weights_Liver - Absolute) | LOEL (F, Organ weights_Liver - Relative)
10 mg/kg-day: NOEL (M, Clinical chemistry_Albumin)
50 mg/kg-day: LOEL (F, Clinical chemistry_Alanine aminotransferase) | LOEL (F, Clinical chemistry_Cholesterol) | LOEL (F, Clinical chemistry_Triglycerides) | LOEL (F, Nonneoplastic effects_Nose - Olfactory epithelium, degeneration) | LOEL (F, Nonneoplastic effects_Nose - Olfactory epithelium, hyperplasia) | LOEL (F, Organ weights_R. kidney - Relative)
100 mg/kg-day: NOEL (F, Clinical chemistry_Aspartate aminotransferase) | NOEL (F, Clinical chemistry_Creatinine kinase) | NOEL (F, Clinical chemistry_Direct bilirubin) | LOEL (F, Clinical chemistry_Free thyroxine) | NOEL (F, Clinical chemistry_Indirect bilirubin) | NOEL (F, Clinical chemistry_Sorbitol dehydrogenase) | NOEL (F, Clinical chemistry_Testosterone) | NOEL (F, Clinical chemistry_Total bile acids) | NOEL (F, Clinical chemistry_Total bilirubin) | NOEL (F, Clinical chemistry_Total protein) | LOEL (F, Clinical chemistry_Total thyroxine) | NOEL (F, Clinical chemistry_Total triiodothyronine) | NOEL (F, Hematology_Mean corpuscular hemoglobin concentration) | NOEL (F, Hematology_Mean corpuscular volume) | NOEL (F, Hematology_Platelets) | NOEL (F, Hematology_Reticulocytes) | NOEL (F, Nonneoplastic effects_Bone marrow - Hypocellularity) | NOEL (F, Nonneoplastic effects_Forestomach - Epithelium, hyperplasia) | NOEL (F, Nonneoplastic effects_Forestomach - Inflammation, chronic active) | NOEL (F, Nonneoplastic effects_Kidney - Nephropathy, chronic progressive) | NOEL (F, Nonneoplastic effects_Liver - Hepatocyte, Necrosis) | LOEL (F, Nonneoplastic effects_Liver - Hepatocyte, hypertrophy) | NOEL (F, Nonneoplastic effects_Liver - Hepatocyte, vacuolization cytoplasmic) | NOEL (F, Nonneoplastic effects_Lymph nodes - Mandibular, atrophy) | NOEL (F, Nonneoplastic effects_Lymph nodes - Mesenteric, atrophy) | LOEL (F, Nonneoplastic effects_Nose - Olfactory epithelium, inflammation, suppurative) | NOEL (F, Nonneoplastic effects_Spleen - Atrophy) | NOEL (F, Nonneoplastic effects_Spleen - Extramedullary hematopoiesis, increased) | NOEL (F, Nonneoplastic effects_Thymus - Atrophy) | NOEL (F, Nonneoplastic effects_Thymus - Lymphocyte, apoptosis) | LOEL (F, Nonneoplastic effects_Thyroid gland - Follicular cell hypertrophy) | NOEL (F, Organ weights_R. adrenal gland - Absolute) | NOEL (F, Organ weights_R. adrenal gland - Relative) | LOEL (F, Organ weights_R. kidney - Absolute) | NOEL (F, Organ weights_Spleen - Absolute) | NOEL (F, Organ weights_Spleen - Relative) | NOEL (F, Organ weights_Thymus - Absolute) | NOEL (F, Organ weights_Thymus - Relative) | NOEL (F, Organ weights_Thyroid gland - Absolute) | NOEL (F, Organ weights_Thyroid gland - Relative) | LOEL (F, Reproductive toxicity_Altered estrous cyclicity) | NOEL (F, Survival rates) | NOEL (F, body weight)
6.25 mg/kg-day: LOEL (F, Clinical chemistry_Alkaline phosphatase) | LOEL (F, Clinical chemistry_Thyroid stimulating hormone) | LOEL (F, Gene expression_Cyp2b1) | LOEL (F, Gene expression_Cyp2b2)
